The values that follow come from PubChem BioAssay AID200 (DTP/NCI, 2004).

Structures are written as SMILES. Values joined by “and” are separate entries in the source; they are usually repeats but may differ in a detail not shown here. Identical values can stand only once. Inconclusive results and toxic doses are left out.

This assay has as its system B6C3F1 mice, B16 melanoma ip, median survival T/C. The assay is described as follows: NCI In Vivo Anticancer Drug Screen. Data for tumor model B16 Melanoma (intraperitoneal) in B6C3F1 mice. The conditions noted are these: endpoint: median survival time, higher = longer survival. In a few lines:
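Tumor-bearing mice received test compound; a separate group got vehicle only. Survival was then compared, with results reported as treated over control.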

The mark [1] stands for this setting: dose: 1.5 mg/kg/injection, schedule: Q01DX009 (ip), vehicle: saline.
Setting [2] is: dose: 3.0 mg/kg/injection, schedule: Q01DX009 (ip), vehicle: saline.
The mark [3] stands for this setting: dose: 6.0 mg/kg/injection, schedule: Q01DX009 (ip), vehicle: saline.
[4] abbreviates: dose: 25.0 mg/kg/injection, schedule: Q01DX009 (ip), vehicle: saline with Tween-80.

As to `CCCCCCCC(=O)N/N=C(\CO)[C@]1(O)Cc2c(O)c3c(c(O)c2[C@@H](OC2CC(N)C(O)C(C)O2)C1)C(=O)c1c(OC)cccc1C3=O` (stereo not given in full), the T/C runs as follows: under setting [1], 154 % of control; (dose: 1.5 mg/kg/injection, schedule: Q01DX009 (ip), vehicle: water) 171 % of control; under setting [2], 196 % of control; (dose: 3.0 mg/kg/injection, schedule: Q01DX009 (ip), vehicle: water) 199 % of control; under setting [3], 216 % of control; (dose: 6.0 mg/kg/injection, schedule: Q01DX009 (ip), vehicle: water) 320 % of control. Besides, the T/C reads like this: (dose: 12.0 mg/kg/injection, schedule: Q01DX009 (ip), vehicle: saline) 208 % of control; (dose: 12.0 mg/kg/injection, schedule: Q01DX009 (ip), vehicle: water) 320 % of control; (dose: 24.0 mg/kg/injection, schedule: Q01DX009 (ip), vehicle: saline) 208 % of control.
Take `CN(C)CCN1C(=O)c2cccc3cc(N)cc(c23)C1=O`: the T/C runs as follows: (dose: 1.0 mg/kg/injection, schedule: Q01DX009 (ip), vehicle: saline with Tween-80) 113 % of control and 102 % of control; (dose: 2.0 mg/kg/injection, schedule: Q01DX009 (ip), vehicle: acid diluted with saline) 97 % of control; (dose: 2.0 mg/kg/injection, schedule: Q01DX009 (ip), vehicle: saline with Tween-80) 101 % of control and 102 % of control; (dose: 4.0 mg/kg/injection, schedule: Q01DX009 (ip), vehicle: acid diluted with saline) 106 % of control; (dose: 4.0 mg/kg/injection, schedule: Q01DX009 (ip), vehicle: saline with Tween-80) 112 % of control and 113 % of control and 120 % of control; (dose: 8.0 mg/kg/injection, schedule: Q01DX009 (ip), vehicle: acid diluted with saline) 111 % of control. In addition, the T/C was 116 % of control and 118 % of control and 120 % of control (dose: 8.0 mg/kg/injection, schedule: Q01DX009 (ip), vehicle: saline with Tween-80); 110 % of control (dose: 16.0 mg/kg/injection, schedule: Q01DX009 (ip), vehicle: acid diluted with saline); 87 % of control (dose: 16.0 mg/kg/injection, schedule: Q01DX009 (ip), vehicle: saline with Tween-80).
Turning to `CC1OC(O[C@H]2C[C@](O)(C(C)O)Cc3c(O)c4c(c(O)c32)C(=O)c2c(O)cccc2C4=O)CC(NC=O)C1O` (stereo not given in full), the T/C is, setting by setting: (dose: 0.62 mg/kg/injection, schedule: Q01DX001 (ip), vehicle: water) 158 % of control; (dose: 1.25 mg/kg/injection, schedule: Q01DX001 (ip), vehicle: water) 185 % of control; (dose: 2.5 mg/kg/injection, schedule: Q01DX001 (ip), vehicle: distilled water + Tween-80) 288 % of control; (dose: 2.5 mg/kg/injection, schedule: Q01DX001 (ip), vehicle: water) 257 % of control; (dose: 5.0 mg/kg/injection, schedule: Q01DX001 (ip), vehicle: water) 170 % of control.
As for `CNC(=O)/C=C/C1=CN2C(=O)c3ccc(C)c(O)c3NC(OC)C2C1` (stereo not given), the T/C was 109 % of control and 106 % of control (dose: 0.01 mg/kg/injection, schedule: Q01DX009 (ip), vehicle: saline); 109 % of control (dose: 0.02 mg/kg/injection, schedule: Q01DX009 (ip), vehicle: saline); 115 % of control (dose: 0.03 mg/kg/injection, schedule: Q01DX009 (ip), vehicle: saline); 113 % of control and 116 % of control (dose: 0.05 mg/kg/injection, schedule: Q01DX009 (ip), vehicle: saline); 98 % of control (dose: 0.05 mg/kg/injection, schedule: Q01DX009 (ip), vehicle: suspension in saline); 117 % of control and 98 % of control (dose: 0.1 mg/kg/injection, schedule: Q01DX009 (ip), vehicle: saline). In addition, the T/C was 97 % of control (dose: 0.1 mg/kg/injection, schedule: Q01DX009 (ip), vehicle: suspension in saline) and 119 % of control (dose: 0.2 mg/kg/injection, schedule: Q01DX009 (ip), vehicle: saline).
`O=C(CCBr)NCCNC(=O)CCBr`: the T/C runs as follows: (dose: 43.7 mg/kg/injection, schedule: Q01DX009 (ip), vehicle: saline with Tween-80) 96 % of control; (dose: 87.5 mg/kg/injection, schedule: Q01DX009 (ip), vehicle: saline with Tween-80) 100 % of control; (dose: 175.0 mg/kg/injection, schedule: Q01DX009 (ip), vehicle: saline with Tween-80) 98 % of control.
Regarding `C1CN(P2(N3CC3)=NP(N3CC3)(N3CC3)=NP(N3CC3)(N3CC3)=N2)CCO1` (stereo not given), the T/C was 87 % of control and 96 % of control (dose: 1.0 mg/kg/injection, schedule: Q01DX009 (ip), vehicle: saline); 88 % of control and 106 % of control (dose: 1.0 mg/kg/injection, schedule: Q02DX009 (ip), vehicle: saline); 87 % of control and 105 % of control (dose: 2.0 mg/kg/injection, schedule: Q01DX009 (ip), vehicle: saline); 114 % of control and 92 % of control (dose: 2.0 mg/kg/injection, schedule: Q02DX009 (ip), vehicle: saline); 101 % of control (dose: 4.0 mg/kg/injection, schedule: Q01DX009 (ip), vehicle: saline); 103 % of control (dose: 4.0 mg/kg/injection, schedule: Q02DX009 (ip), vehicle: saline). Further, the T/C (dose: 8.0 mg/kg/injection, schedule: Q01DX009 (ip), vehicle: saline) was 110 % of control; the T/C (dose: 8.0 mg/kg/injection, schedule: Q02DX009 (ip), vehicle: saline) is 109 % of control and 121 % of control; the T/C (dose: 16.0 mg/kg/injection, schedule: Q01DX009 (ip), vehicle: saline) is 179 % of control; the T/C (dose: 16.0 mg/kg/injection, schedule: Q02DX009 (ip), vehicle: saline) is 169 % of control; the T/C (dose: 32.0 mg/kg/injection, schedule: Q01DX009 (ip), vehicle: saline) was 182 % of control and 205 % of control.
As to `C=CC1(C)CCC2C(=CCC3C2(C)CC(O)C(O)C3(C)COC2OC(CO)C(O)C(O)C2O)C1` (stereo not given), the T/C was 116 % of control (dose: 1.5 mg/kg/injection, schedule: Q01DX009 (ip), vehicle: Klucel (hydroxypropylcellulose) (HPC)); 103 % of control (dose: 3.0 mg/kg/injection, schedule: Q01DX009 (ip), vehicle: Klucel (hydroxypropylcellulose) (HPC)); 113 % of control (dose: 6.0 mg/kg/injection, schedule: Q01DX009 (ip), vehicle: Klucel (hydroxypropylcellulose) (HPC)); 107 % of control (dose: 12.0 mg/kg/injection, schedule: Q01DX009 (ip), vehicle: Klucel (hydroxypropylcellulose) (HPC)); 108 % of control (dose: 24.0 mg/kg/injection, schedule: Q01DX009 (ip), vehicle: Klucel (hydroxypropylcellulose) (HPC)).
On to `C=COC(=O)C(Cc1ccccc1)NC(=O)OCc1ccccc1` (stereo not given), for which the T/C was 102 % of control under setting [4]; 98 % of control (dose: 50.0 mg/kg/injection, schedule: Q01DX009 (ip), vehicle: saline with Tween-80); 96 % of control (dose: 100.0 mg/kg/injection, schedule: Q01DX009 (ip), vehicle: saline with Tween-80); 102 % of control (dose: 200.0 mg/kg/injection, schedule: Q01DX009 (ip), vehicle: saline with Tween-80); 90 % of control (dose: 400.0 mg/kg/injection, schedule: Q01DX009 (ip), vehicle: saline with Tween-80).
For `CCCCCCCCCCCCCCCCCC(=O)OCC(=O)OCC(=O)[C@]1(O)Cc2c(O)c3c(c(O)c2[C@@H](OC2CC(N)C(O)C(C)O2)C1)C(=O)c1c(OC)cccc1C3=O` (stereo not given in full), the T/C is, setting by setting: (dose: 0.75 mg/kg/injection, schedule: Q01DX009 (ip), vehicle: saline) 160 % of control and 211 % of control; under setting [1], 208 % of control and 333 % of control; under setting [2], 255 % of control and 333 % of control; under setting [3], 238 % of control and 333 % of control.
For `O=Cc1c(O)c2ccccc2[nH]c1=O`, the T/C is, setting by setting: (dose: 6.25 mg/kg/injection, schedule: Q01DX009 (ip), vehicle: saline with Tween-80) 109 % of control and 107 % of control; (dose: 12.5 mg/kg/injection, schedule: Q01DX009 (ip), vehicle: saline with Tween-80) 108 % of control and 105 % of control; under setting [4], 119 % of control.
On to `CCC1=C[C@H]2CN(CCc3c([nH]c4ccccc34)[C@@](C(=O)OC)(c3cc4c(cc3OC)N(C)[C@H]3[C@@](O)(C(=O)NN)[C@H](O)[C@]5(CC)C=CCN6CC[C@]43[C@@H]65)C2)C1`, for which the T/C was 116 % of control (dose: 15.62 micrograms/kg/injection, schedule: Q01DX009 (ip), vehicle: water); 119 % of control (dose: 31.25 micrograms/kg/injection, schedule: Q01DX009 (ip), vehicle: water); 167 % of control (dose: 125.0 micrograms/kg/injection, schedule: Q01DX009 (ip), vehicle: water); 166 % of control (dose: 250.0 micrograms/kg/injection, schedule: Q01DX009 (ip), vehicle: water); 176 % of control (dose: 500.0 micrograms/kg/injection, schedule: Q01DX009 (ip), vehicle: water).
As to `CN1CCN(c2ccc3nc(-c4ccc5nc(-c6ccc(O)cc6)[nH]c5c4)[nH]c3c2)CC1`, the T/C by setting is: (dose: 6.25 mg/kg/injection, schedule: Q01DX009 (ip), vehicle: saline) 95 % of control; (dose: 12.5 mg/kg/injection, schedule: Q01DX009 (ip), vehicle: saline) 99 % of control; (dose: 25.0 mg/kg/injection, schedule: Q01DX009 (ip), vehicle: saline) 89 % of control.
